Tests used:
Huh7 cells = assay: EPO expression (ELISA of medium) from PB1-MinTK in Huh7 cells with CAR-containing plasmid, induction by CITCO; format: cell-based, human
From the text: • Huh7 cells which are a human liver cell line • DPBS: without CaCl2, without MgCl2 (Gibco, 14190-094) • DMEM (Sigma, D6546) • FBS (Sigma, F9665) • Pen-Strep (Sigma, P4333) • Promega Fugene-HD (E2311) • TCPOBOP (Sigma, T2320) • CITCO (Cayman Chemicals Company, 16027) • pcDNA6 plasmid which contains the β-galactosidase gene used as internal control for transfection efficiency (Thermofisher, V22020) • mouse CAR expression plasmid from Jouan et al, 2016 (BioCat GmbH, EX-Z4288-M51-10-GC). This was used as Huh7 is CAR deficient. • β-galactosidase substrate solution (Thermofisher, 75707/75710) • Pierce BCA kit (23225) • LARII (Dual Luciferase Reporter 1000 assay system, Promega, E1980) • EPO ELISA kit (Abcam, ab119522) Method: Day 1 • Cells were seeded onto a 48 well plate at a density of 25,000 cells/300 μl Day 2 • On the day of transfection, DNA to be transfected (CAR plasmid/PB1-MinTK operably linked with luciferase or EPO/pcDNA6 plasmid for internal control) was diluted to a 100 ng/μl stock solution. Per 48 Well Transfection: • 45 ng of DNA (15 ng of each plasmid, pcDNA6, CAR and test plasmid) was mixed with 4.1 μl of Optimem medium. • 0.5 μl of Fusion HD was mixed with 4 μl of Optimem medium. • These 2 solutions were mixed and incubated at room temperature for 15 minutes. • The final solution was then added to the well drop wise. • 3 hrs after transfection, the inducer TCPOBOP was added to the appropriate wells at the indicated concentration. Day 3 • 24 hrs after induction the media was removed from the cells. • The cells were washed once in 300 μl of DPBS • Cells were lysed using 100 μl of passive lysis buffer and incubation with rocking for 15 minutes • The cell debris was pelleted by centrifugation of the plate at max speed in a benchtop centrifuge for 1 min • For luciferase, 10 μl sample was transferred into white 96-well plate and luminescence measured by injection of 50 μl of LARII substrate. • β-galactosidase activity was measured as per manufacturer's instructions (Mammalian β-Galactosidase Assay Kit, 75707/75710, Thermo Scientific) using 25 μl of lysate. 25 μl of lysate was transferred into a microplate well and mixed with 25 μl of β-galactosidase Assay Reagent, equilibrated to room temperature. The mixture was incubated at 37° C. for 30 min and absorbance measured at 405 nm. • Protein concentration was measured as per manufacturer's instructions (Pierce™ BCA Protein Assay Kit, 23225/23227, Thermo Scientific) using 25 μl of lysate. 25 μl of lysate was transferred into a microplate well and mixed with 200 μl of working solution. The mixture was incubated at 37° C. for 30 min, cooled to room temperature and then absorbance measured around 562 nm. The protein concentration was calculated with respect to protein standard curve prepared from assaying standards with known protein concentration.
Transfections with PB1-MinTk-EPO were performed as described above with the exception that EPO is secreted into the medium. Therefore, medium was collected, and EPO concentration measured as per manufacturer's instructions (ab119522 Erythropoietin (EPO) Human ELISA Kit, Abcam) using an ELISA assay. 50 μl of medium was transferred to a pre-washed microplate wells and mixed with 50 μl of 1× Biotin Conjugated Antibody. The mixture was incubated at room temperature for 1 hour. The wells were washed, 100 μl of Streptavadin-HRP was added and the plate was incubated at room temperature for 15 minutes. The wells were washed and then 100 μl of TMB Substrate Solution. The mixture was incubated at room temperature for 10 minutes. The enzyme reaction was stopped by addition of 100 μl of Stop Solution and absorbance was read at 450 nm. The EPO concentration was calculated with respect to EPO standard curve prepared from assaying standards with known EPO concentration.
The PB1-MinkTK promoter was then used to drive expression of the protein EPO, which is of therapeutic interest. […]

CD1 male mice = assay: In vivo bioluminescence imaging of mice injected with AAV9 constructs, induction by phenobarbital; conditions: AAV9 via tail vein
Protocol: • Seed HEK 293-AAV cells in 15 cm plates. To be 70-80% confluent on the day of transfection • Final volume on each plate: 15 ml Day 2: Prepare Transfection Mix: • DNA mix/plate: pDG9 (Packaging plasmid for AAV9): 10.5 μg/pHGTI (Ad. Helper plasmid): 31.5 μg/Vector plasmid: 10.5 μg/Prepare in serum free DMEM/Optimem • Transfer mix/plate: PEI: 125 μl/Prepare in serum free DMEM/Optimem • Add DNA mix into transfection mix. Mix and leave at room temperature for 15-20 mins. • Add 3 ml of transfection mix to each plate drop-wise and gently distribute. Incubate for 24 h. Day 3: • Replace media with 15 ml DMEM supplemented with P/S and 2% FCS. Leave for 48 h. Day 5: • Collect supernatant and pool in 50 ml tubes, 25 ml each tube. Store at −20° C. • Collect cells: Add 5 ml of PBS to each plate→scrape and collect in 50 ml tubes. • To wash plates, add another 1 ml of PBS and collect. • Spin at 1500 rpm for 5 mins. • Remove supernatant and resuspend pelleted cells in 1 ml/plate TD lysis buffer→pool • Store at −80′C. Endonuclease Treatment Cells: • Freeze and thaw pellets 5 times→˜20 mins at 37° C. then ˜20 mins in dry ice (or −80° C.). • Add 25 μl/ml cells of 20% Deoxycholate (or 50 μl/ml of 10% Deoxycholate). • Add 8 μl/ml cells of benzonase. • Incubate at 37° C. for 30 mins. • Spin at 4 Krpm for 30 mins. • Filter supernatant using […] filters. • Store at 4° C. for up to 24 h. Supernatant: • Add 2.5 μl/25 ml supernatant of benzonase. • Add 50 μl/25 ml supernatant of MgSO4. • Incubate at 37° C. for 30 mins. • Spin at 4 Krpm for 30 mins. • Filter supernatant using […] filters. • Store at 4′C for up to 24 h. Hplc Purification • Place both lines in 20% ETOH→template→system wash • Put line A in PBS and line B in Glycine→template→system wash • Place the column in the machine→manual run→flowrate: 5 ml/min→Run for 25 ml or until the UV line is flat. • Prepare FACS tubes (10 for cells and more for supernatant): add 30 μl/tube Tris→put in the machine to collect vectors. • Place the waste lines in a separate tube to be able to run them again through the column. • Run samples (flowrate low, depending on how fast the system and how concentrated the sample is; for cells it is slower, for supernatant it is higher). • After running the waste through the column, wash with PBS→flowrate: 5 ml/min until the UV line is flat. • Set→fraction size: 1 ml; Flowrate: 1 ml/min; concentration % B: 100%→run. • Start collecting: Look for the peak. The peak indicates vector purification. Mark the tubes containing these vectors. • Save programme before exiting. • Wash with PBS→75 ml, 5 ml/min • Wash with Na3PO4 (to store the column in)→75 ml, 5 ml/min • Remove column and store at 4° C. • Wash the machine with PBS→template→system wash • Wash the machine with 20% ETOH→template→system wash • Put both lines in 20% ETOH and shut down • Add 2 L of PBS into a big bucket and put the Dialysis cassette (Side-A-Lyzer; Thermo scientific) to prime. • Collect the vectors from the marked FACS tubes using a syringe and needle and add into the dialysis cassette→remove excess air from the membrane, carefully place the rubber on top of the cassette and let it float in the PBS-containing bucket→leave over night at room temperature on a slow rotating rotor. Next Day: • Prime membrane by adding 5 ml PBS onto a centrifugal filter (Amico Ultra 15; MERCK)→spin for 5 mins at 4 Krpm • Remove excess PBS from inside the membrane. • Take vectors out from the cassette and load onto the membrane→spin for 5 mins at 4 Krpm • Wash the membrane with the vectors inside few times, then collect into 2 ml centrifuge tube filter 0.22 μM (Spin-X; COSTAR) • Spin for 3 mins at 13 Krpm. • Remove filter and aliquot: 1×100 μl (for injection), the rest in 10-2 μl aliquots. • Store in −80° C. • Virus quantification was performed using qRT-PCR with primers and probes for the luciferase gene. Mice Experiment […]

AXOL ARE-hepatocytes = assay: Luciferase expression from PBREM promoters in AXOL ARE-hepatocytes, induction by CITCO; format: cell-based, human; conditions: 1 μM CITCO, readout 24 hrs after induction
From the text: Axol Assay-Ready Expanded (ARE) Hepatocytes are primary human hepatocytes that have been expanded in vitro. Large batch sizes (up to 2000 vials) are available, ensuring a reliable, ready-to-use and consistent source of primary hepatocytes. ARE Hepatocytes express CYP enzymes, are metabolically functional, are polarized and can be infected by the Hepatitis C virus. AXOL ARE-hepatocytes express CAR negating the need to transfect with a CAR-expressing plasmid.
• AXOL assay-ready expanded (ARE) hepatocytes (Axol, ax3701) • ARE hepatocyte thawing medium (Axol, ax3705) • ARE maintenance medium (Axol, ax3710) • Virimer red transfection reagent (Lipocalyx, VR04-02-15) • CITCO, lucifierase, β-galactosidase and BCA kits as described above
ARE hepatocytes were cultured and transfected as described in the manufacturer's manual. 200,000 cells were seeded in 2 ml culture medium in collagen-coated 6 well plate. The cells were incubated for 4 h at 37° C. and 5% CO2 for sufficient adhesion. 200 μl of transfection mixture containing the DNA to be transfected (PB1-MinTK/PB1-CMV/PB1-SV40 operably linked with luciferase and β-galactosidase containing promoter) was added and the cells were incubated on an orbital shaker at 100 rpm for three hours at 37° C. and 5% CO2. 3 hrs after transfection CITCO was added to the appropriate wells. Cells were incubated under static conditions at 37° C. and 5% CO2 overnight and in the morning the medium was replaced with fresh ARE Hepatocyte Maintenance Medium. Readout was 24 hrs after induction. […]

With “CMV-MP: CMV minimal promoter driving EPO in pGL4.10, SEQ ID NO: 54 [reference compound]” the “change of EPO expression on addition of CITCO” value (Huh7 cells; 0.5 μM, 1 μM, 2 μM and 3 μM CITCO) was “does not change the EPO expression”.

In the case of `Clc1ccc(-c2nc3sccn3c2C=NOCc2ccc(Cl)c(Cl)c2)cc1` [CITCO, 6-(4Chlorophenyl)imidazo[2,1-b][1,3]thiazole-5-carbaldehyde-O-(3,4-dichlorobenzyl)oxime, reference compound], the “strength as inducer of CAR activity” value (Huh7 cells; 22% vs 40% of CMV-IE with PB1-MinTK) is reported as “weaker inducer of CAR activity than TCPOBOP”.

B1: CMV-IE: strong viral CMV-IE comparative promoter, SEQ ID NO: 52 (nucleic acid)
DNA: GACATTGATTATTGACTAGTTATTAATAGTAATCAATTACGGGGTCATTAGTTCATAGCCCATATATGGAGTTCCGCGTTACATAACTTACGGTAAATGGCCCGCCTGGCTGACCGCCCAACGACCCCCGCCCATTGACGTCAATAATGACGTATGTTCCCATAGTAACGCCAATAGGGACTTTCCATTGACGTCAATGGGTGGAGTATTTACGGTAAACTGCCCACTTGGCAGTACATCAAGTGTATCATATGCCAAGTACGCCCCCTATTGACGTCAATGACGGTAAATGGCCCGCCTGGCATTATGCCCAGTACATGACCTTATGGGACTTTCCTACTTGGCAGTACATCTACGTATTAGTCATCGCTATTACCATGGTGATGCGGTTTTGGCAGTACATCAATGGGCGTGGATAGCGGTTTGACTCACGGGGATTTCCAAGTCTCCACCCCATTGACGTCAATGGGAGTTTGTTTTGGCACCAAAATCAACGGGACTTTCCAAAATGTCGTAACAACTCCGCCCCATTGACGCAAATGGGCGGTAGGCGTGTACGGTGGGAGGTCTATATAAGCAGAGCT
modifications: CMV-IE comparative promoter
B1 was tested, and the “tissue distribution of luciferase expression” value (CD1 male mice) was “expressing in almost all tissues of the mouse” and the “induction of luciferase expression” value (AXOL ARE-hepatocytes) was about 2 fold.

— patent US12472269B2, “Liver-specific inducible promoters and methods of use thereof” (ASKBIO INC., priority 2019, dated 2025)
